Here are results for 48 compounds from ChEMBL document CHEMBL5604063, “ASAP - DENV-2 NS2B-NS3 protease fluorescence dose response” (2024).

Test [1] has as its target T1, Genome polyprotein (dengue virus type 2, UniProt P29990). It counts as functional, Thailand/16681/1984.
Test [2] concerns the target T1, Genome polyprotein. It counts as functional, Thailand/16681/1984. The source holds these as a separate data set.

“And” between values parts separate entries of the source, which are not always exact repeats. Identical values can stand only once.

T1 sequence (P29990 1346-1475 limits assumed): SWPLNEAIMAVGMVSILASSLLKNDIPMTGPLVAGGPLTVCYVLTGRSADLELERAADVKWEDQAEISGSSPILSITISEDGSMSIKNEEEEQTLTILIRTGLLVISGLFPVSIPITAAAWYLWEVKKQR
T1 sequence (P29990 1476-2093 limits assumed): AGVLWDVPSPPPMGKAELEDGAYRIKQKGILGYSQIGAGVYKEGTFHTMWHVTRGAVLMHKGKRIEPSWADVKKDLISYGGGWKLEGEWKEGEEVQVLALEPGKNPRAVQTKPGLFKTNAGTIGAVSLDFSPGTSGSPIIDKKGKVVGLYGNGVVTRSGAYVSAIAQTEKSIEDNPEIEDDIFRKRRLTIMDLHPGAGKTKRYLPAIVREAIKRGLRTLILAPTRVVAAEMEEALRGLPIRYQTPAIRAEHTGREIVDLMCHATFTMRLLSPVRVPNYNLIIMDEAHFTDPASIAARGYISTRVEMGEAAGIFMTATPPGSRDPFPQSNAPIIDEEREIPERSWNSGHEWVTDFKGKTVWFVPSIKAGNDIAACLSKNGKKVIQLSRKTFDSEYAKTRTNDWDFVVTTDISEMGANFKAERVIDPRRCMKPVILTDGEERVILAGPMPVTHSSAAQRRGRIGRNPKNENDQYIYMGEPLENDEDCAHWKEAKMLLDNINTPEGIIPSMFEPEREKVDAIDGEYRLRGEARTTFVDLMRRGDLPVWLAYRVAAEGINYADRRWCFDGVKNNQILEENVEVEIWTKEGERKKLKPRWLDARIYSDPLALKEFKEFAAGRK

Consider `Cc1c(C(=O)Nc2ccc3c(c2)CCS3(=O)=O)cc(C2CC2)n1C`, for which the figures for the half-maximal inhibitory concentration (IC50) against Genome polyprotein [1] and against Genome polyprotein [2] were over 99.5 µM and over 100 µM, respectively.

As for `O=C1Cc2c(cccc2C(=O)N[C@H]2CC[C@H](OC3CCCC3)CC2)N1`, the IC50 (as a rule, the concentration that inhibits the measured activity by half) against Genome polyprotein [1] was over 99.5 µM; at Genome polyprotein [2] it was over 100 µM.

Regarding `Cn1ccc(COc2ccc([C@@H](NC(=O)OCc3ccccc3)C(=O)Nc3cccc(CN)c3)cc2)n1`, the 50% inhibitory concentration (IC50) is over 99.5 µM at Genome polyprotein [1] and over 100 µM against Genome polyprotein [2].

As for `NCc1cccc(NC(=O)[C@@H](NC(=O)OCc2ccccc2)c2ccc(OCc3ccccc3)cc2)c1`, the IC50 on Genome polyprotein [1] was 14.2 µM; at Genome polyprotein [2] it was 31 µM and 29.9 µM and 41.3 µM and 32.5 µM and 27.7 µM and 33.1 µM and 29.8 µM and 19 µM and 28.8 µM.

With `CN1CCC[C@H]1COc1ccc([C@@H](NC(=O)OCc2ccccc2)C(=O)Nc2cccc(CN)c2)cc1`, the figures for the IC50 against Genome polyprotein [1] and against Genome polyprotein [2] were over 99.5 µM and over 100 µM, respectively.

In the case of `NC1(c2ccccc2NS(=O)(=O)c2ccc(Oc3ccccc3Cl)cc2)CC1`, the half-inhibitory concentration (IC50) against Genome polyprotein [1] is over 99.5 µM; against Genome polyprotein [2] it was over 100 µM.

For `CCC[C@H](C)N1Cc2ccc(NC(=O)c3cc(Cl)cc4[nH]ncc34)cc2C1`, the concentration for half-maximal inhibition (IC50) against Genome polyprotein [1] is over 99.5 µM; on Genome polyprotein [2] it was over 100 µM.

Regarding `O=C(Nc1ccc2c(c1)CNC2)c1ccc2ncsc2c1`, the IC50 was over 99.5 µM on Genome polyprotein [1] and over 100 µM against Genome polyprotein [2].

With `O=C(Nc1ccc2c(c1)CNC2)c1cccc2c1[C@]1(CCNC1)C(=O)N2`, the IC50 against Genome polyprotein [1] is over 99.5 µM; against Genome polyprotein [2] it was over 100 µM.

Regarding `CN(C)c1nc(-c2cc(F)cc(C(=O)Nc3ccc4c(c3)CNC4)c2)cs1`, the results for the 50% inhibitory concentration (IC50) against Genome polyprotein [1] and against Genome polyprotein [2] were over 99.5 µM and over 100 µM, respectively.

On to `O=C(Nc1ccc2c(c1)CNC2)N1CCC[C@H]1c1nc2ncccc2[nH]1`, for which the concentration for half-maximal inhibition (IC50) is over 99.5 µM against Genome polyprotein [1] and over 100 µM on Genome polyprotein [2].

For `NCc1cccc(NC(=O)[C@H](NC(=O)OCc2ccccc2)C2CCN(C(=O)C3CCCCC3)CC2)c1`, the IC50 on Genome polyprotein [1] was over 99.5 µM; at Genome polyprotein [2], over 100 µM.

`O=C(O)Cc1cc2c(c(Cc3c[nH]c4ccc(Cl)cc34)c1)OCC2`: the results for the 50% inhibitory concentration (IC50) at Genome polyprotein [1] and against Genome polyprotein [2] were over 99.5 µM and over 100 µM, respectively.

Take `Cc1c(F)cc(C(=O)Nc2cccc(CN)c2)c(F)c1NC(=O)OCc1ccccc1`: the results for the IC50 against Genome polyprotein [1] and against Genome polyprotein [2] were 69.8 µM and 100 µM, respectively.

Regarding `Cc1c(C(=O)Nc2cc(C(=O)N3CC4(CCO4)C3)ccn2)cc(C2CC2)n1C`, the concentration for half-maximal inhibition (IC50) at Genome polyprotein [1] was over 99.5 µM; on Genome polyprotein [2] it was over 100 µM.

For the compound `O=C(Nc1cccc(-c2nnn[nH]2)c1)c1ccc(-c2cccnc2)s1`, the IC50 against Genome polyprotein [1] is over 99.5 µM; against Genome polyprotein [2], over 100 µM.

Turning to `C[C@@H]1C[C@@H](C(=O)Nc2cccc(CN)c2)CCO1`, the half-maximal inhibitory concentration (IC50) against Genome polyprotein [1] was over 99.5 µM; against Genome polyprotein [2], over 100 µM.

For `COCCNC(=O)[C@H](Nc1cccc(-c2nn[nH]n2)c1)c1cc(Cl)cc(NC(=O)OCc2ccccc2)c1`, the IC50 at Genome polyprotein [1] worked out at 59.8 µM; against Genome polyprotein [2], 28 µM.

Turning to `O=C(Nc1ccc2c(c1)CNC2)c1cccc2c(C3CNC3)n[nH]c12`, the IC50 was 19 µM and 17.2 µM against Genome polyprotein [1]; 22.7 µM and 26.4 µM on Genome polyprotein [2].

As to `N#Cc1ccc(Cl)c(C(=O)Nc2ccc3c(c2)CNC3)c1`, the 50% inhibitory concentration (IC50) was over 99.5 µM at Genome polyprotein [1] and over 100 µM against Genome polyprotein [2].

Consider `NCc1cccc(NC(=O)[C@@H](NC(=O)OCc2ccccc2)c2ccc(OCCN3CCCCC3)cc2)c1`, for which the half-inhibitory concentration (IC50) against Genome polyprotein [1] is over 99.5 µM; at Genome polyprotein [2] it was over 100 µM.

Take `Cc1c(C(=O)Nc2cccc(-c3nnn[nH]3)c2)cnn1-c1ccc(Cl)cc1`: the IC50 was over 99.5 µM on Genome polyprotein [1] and over 100 µM at Genome polyprotein [2].

`CCCOc1ccc2[nH]cc(CN3CCC(c4cscn4)CC3)c2c1`: the IC50 was over 99.5 µM against Genome polyprotein [1] and over 100 µM against Genome polyprotein [2].

For the compound `O=C(Nc1ccc2c(c1)CNC2)c1ccc2c(C3=CCNCC3)csc2c1`, the 50% inhibitory concentration (IC50) on Genome polyprotein [1] was 52.6 µM and 43.4 µM; against Genome polyprotein [2], over 100 µM.

Take `CC(C)CO[C@]1(C)C(=O)Nc2cc(F)cc(C(=O)Nc3ccc4c(c3)CNC4)c21`: the IC50 was over 99.5 µM at Genome polyprotein [1] and over 100 µM against Genome polyprotein [2].

As for `COc1ccc(-c2nc3c(C(=O)Nc4ccc5c(c4)CNC5)cc(F)cc3[nH]2)nn1`, the IC50 on Genome polyprotein [1] is 11.4 µM and 19.1 µM and 8.41 µM; on Genome polyprotein [2] it was 32 µM and 19 µM and 38 µM and 36.5 µM.

Regarding `Cc1cccc(CNc2ccc(Cl)cc2C(=O)Nc2ccc3c(c2)CNC3)n1`, the results for the IC50 against Genome polyprotein [1] and at Genome polyprotein [2] were over 99.5 µM and over 100 µM, respectively.

Take `O=C(c1cc(Cl)cc2[nH]ncc12)N1CC[C@]2(CCNC2)C1`: the IC50 on Genome polyprotein [1] is over 99.5 µM; against Genome polyprotein [2], over 100 µM.

Regarding `CNC(=O)[C@]1(Nc2ccc3c(c2)CNC3)C(=O)Nc2ccc(Cl)cc21`, the IC50 is over 99.5 µM against Genome polyprotein [1] and over 100 µM on Genome polyprotein [2].

Take `Cc1c(C(=O)Nc2cc(C(=O)N3CCC[C@H]3C(N)=O)ccn2)cc(C2CC2)n1C`: the figures for the IC50 on Genome polyprotein [1] and against Genome polyprotein [2] were over 99.5 µM and over 100 µM, respectively.

As to `CNC(=O)[C@H](Nc1cccc(-c2nnn[nH]2)c1)c1cc(Cl)cc(C2CC2)c1`, the results for the IC50 against Genome polyprotein [1] and at Genome polyprotein [2] were over 99.5 µM and over 100 µM, respectively.

With `C=CC[C@H]1c2ccc(NC(=O)c3cc(Br)cc4[nH]ccc34)cc2CN1C(=O)OC(C)(C)C`, the IC50 at Genome polyprotein [1] is over 99.5 µM; against Genome polyprotein [2], over 100 µM.

Regarding `NCc1cc(Br)cc([C@H]2C[C@@H]2c2cc(Cl)cc(NC(=O)OCc3ccccc3)c2)c1`, the values for the half-inhibitory concentration (IC50) against Genome polyprotein [1] and at Genome polyprotein [2] were 16.1 µM and 33.5 µM, respectively.

For the compound `O=C(Cn1ccnc(N2CC[C@H](CO)C2)c1=O)NCc1cccs1`, the concentration for half-maximal inhibition (IC50) against Genome polyprotein [1] is over 99.5 µM; against Genome polyprotein [2], over 100 µM.

Take `NCCc1ccc(NC(=O)c2cc(Cl)cc3[nH]ncc23)cc1`: the half-inhibitory concentration (IC50) against Genome polyprotein [1] was over 99.5 µM; against Genome polyprotein [2], over 100 µM.

With `CC1(C)CCC(F)(F)C[C@H]1C(=O)Nc1cccc(CN)c1`, the IC50 is over 99.5 µM against Genome polyprotein [1] and over 100 µM at Genome polyprotein [2].

As for `CN1CCC(COc2ccc([C@@H](NC(=O)OCc3ccccc3)C(=O)Nc3cccc(CN)c3)cc2)CC1`, the concentration for half-maximal inhibition (IC50) against Genome polyprotein [1] is over 99.5 µM; on Genome polyprotein [2], over 100 µM.

As to `O=C(Nc1cc(Cl)cc(C(=O)N[C@H]2CCCC[C@@H]2C(=O)O)c1)OCc1ccccc1`, the IC50 at Genome polyprotein [1] is over 99.5 µM; against Genome polyprotein [2], over 100 µM.

For the compound `CCCn1cc(-c2cc(Cl)cc(NC(=O)OCc3ccccc3)c2)c(C(=O)O)n1`, the figures for the IC50 against Genome polyprotein [1] and against Genome polyprotein [2] were over 99.5 µM and over 100 µM, respectively.

Consider `NCc1cccc(NC(=O)[C@H](NC(=O)OCc2ccccc2)c2ccc(OCc3ccncn3)cc2)c1`, for which the IC50 is 99.2 µM at Genome polyprotein [1] and over 100 µM at Genome polyprotein [2].

With `O=C1CCN(c2cc(Cl)cc(C(=O)Nc3ccc4c(c3)CNC4)c2)C(=O)N1`, the IC50 was over 99.5 µM at Genome polyprotein [1] and over 100 µM on Genome polyprotein [2].

For the compound `Cc1cc(C#N)cc2c(Cc3ccc(-c4nnn[nH]4)cc3)c[nH]c12`, the IC50 on Genome polyprotein [1] was determined as 74.3 µM; on Genome polyprotein [2], 35 µM.

Turning to `O=C1Nc2ncccc2C[C@H]1NCc1n[nH]c2ccccc12`, the figures for the IC50 at Genome polyprotein [1] and at Genome polyprotein [2] were over 99.5 µM and over 100 µM, respectively.

`NCc1cccc(NC(=O)[C@H](NC(=O)OCc2ccccc2)c2ccc(OCc3ccccc3)c(Br)c2)c1`: the half-maximal inhibitory concentration (IC50) is 30.4 µM at Genome polyprotein [1] and over 100 µM against Genome polyprotein [2].

As for `COCCNC(=O)[C@H](Nc1cccc([C@H]2CCOC2)c1)c1cc(Cl)cc2[nH]ncc12`, the results for the half-inhibitory concentration (IC50) at Genome polyprotein [1] and at Genome polyprotein [2] were over 99.5 µM and over 100 µM, respectively.

As for `N[C@@H](CCO)c1cccc(NC(=O)c2cc(Cl)cc(NC(=O)OCc3ccccc3)c2)c1`, the half-inhibitory concentration (IC50) at Genome polyprotein [1] is over 99.5 µM; against Genome polyprotein [2] it was over 100 µM.

On to `Clc1cc(CNc2ccc3c(n2)CNC3)c2cn[nH]c2c1`, for which the values for the half-inhibitory concentration (IC50) on Genome polyprotein [1] and against Genome polyprotein [2] were over 99.5 µM and over 100 µM, respectively.

Regarding `N#C[C@H](Nc1ccc2c(c1)CNC2)c1ccnc(C(F)(F)F)c1`, the concentration for half-maximal inhibition (IC50) on Genome polyprotein [1] is over 99.5 µM; on Genome polyprotein [2], over 100 µM.
